The source of these data is PMC10573892, “β-Lactam TRPM8 Antagonists Derived from Phe-Phenylalaninol Conjugates: Structure–Activity Relationships and Antiallodynic Activity” (International Journal of Molecular Sciences, 2023).

Test [1] has as its target T1, rat TRPM8 channel (rTRPM8) (Rattus norvegicus, UniProt Q8R455).
T1 construct: expressed in transfected cells
The test is described as follows: Ca2+ microfluorimetry, menthol-induced Ca2+ entry in HEK293 cells overexpressing rTRPM8. The following applies: Table 3; rTRPM8, HEK293, activation by 100 µM menthol. It is filed as cell-based. The procedure:
The diastereomeric 1,4,4-trisubstitutes β-lactams were evaluated as modulators of the TRPM8 channel by calcium microfluorimetry assays. These assays use a Human Embryonic Kidney 293 (HEK293) cell line that stably overexpressed rat TRPM8 channel (rTRPM8). […] Three separated experiments in triplicate were used.
The initial biological evaluation of this series of 1,3,4,4-tetrasubstituted β-lactams was performed by calcium microfluorimetry assays using the indicated HEK293 cell line overexpressing rTRPM8 channels.
(§1) Calcium fluorometry, Patch-Clamp assays and in vivo experiments were performed using the methodology previously described for TRPM8 [35] or TRPM3 [61]. In the Patch -Clamp experiments, the intracellular pipette solution contained (in mM) 140 KCl, 5 EGTA, and 10 mM HEPES, adjusted to pH 7.2 with KOH, and the extracellular solution contained (in mM) 140 NaCl, 2 CaCl2, 1 MgCl2, 10 D-glucose and 10 HEPES, adjusted to pH 7.4 with NaOH. Selectivity against TRPV1, TRPV3, TRPA1 and ASIC3 was subcontracted to Eurofins-CEREP or Eurofins-PANLABS (see ref. [35] for more details).

For the next test, the target named is T2, rTRPM8 (Rattus norvegicus, UniProt Q8R455).
T2 construct: expressed in transfected cells
The test is described as follows: Patch-Clamp electrophysiology on single HEK293 cells expressing rat TRPM8. It is filed as cell-based. The following applies: activation by 100 µM menthol; holding voltage −60 mV.
Excerpt: A recent research study using Patch-Clamp, among other techniques, established that menthol occupies a cavity within the TRPM8 S1–S4 transmembrane helix, with the OH group forming an H-bond with the δ-NH of R842 residue, and Van der Waals interactions among the methyl groups of the ^iPr moiety and residues I846 and L843 [41].
This is evident by a negligible current at negative potentials and a linear intensification of the ohmic current at positive voltages. When applying compound 34 at a concentration of […], a noticeable reduction in menthol-induced activity at depolarizing voltages was observed (indicated by the red line) compared to menthol alone. Dose–response relationships for both tested compounds were established through triplicate experiments at various concentrations, applying a holding voltage of −60 mV (as shown in Figure 2B).
as §1
Figure 2 Compound 34 blocks TRPM8-mediated responses evoked by menthol in rTRPM8-expressing HEK293 cells. (A) IV curves obtained after exposure to vehicle solution (green trace), 100 µM menthol (blue trace) and 100 µM menthol + 10 µM 34 (red trace). Peak current data were expressed as pA/pF (to allow comparison among different size cells). Each point is the mean ± SEM of n = 15. (B) Concentration/response curves for rTRPM8 current blockade by 34 at a holding voltage of −60 mV. […]

Test [2] concerns dorsal root ganglia (DRG) sensory neurons. The test is described as follows: Resting membrane potential of DRG sensory neurons (current clamp Patch-Clamp). Type of test: cell-based. The following applies: 10 µM. The protocol:
We also investigated the effect of β-lactams derivatives on the resting membrane potential (RMP) of dorsal root ganglia (DRG) sensory neurons.
(A) Representative recordings of resting membrane potential measured under current clamp configuration. The traces show the action potentials (APs) firings from DRG neurons elicited by 100 μM menthol (left trace) or in the presence of vehicle (0.5% DMSO) or the β-lactams derivatives ([…]). (B) Changes in the Vm in the absence and in the presence of 10 μM of the β-lactams derivatives. Data were analyzed by one-way ANOVA followed by Bonferroni post hoc test for multiple comparisons (ns = no significance, **** p < = 0.0001) and given as mean ± SEM; n ≥ 40 cells from 4 cultures.
(In general: Patch clamp records ionic current or voltage across a cell membrane.)

The next test concerns the target T3, hTRPA1 (Homo sapiens, UniProt O75762).
T3 construct: Eurofins-CEREP or Eurofins-PANLABS (contract assay)
Kind of test: TRPA1 channel Ca2+ microfluorimetry (allylisothiocyanate 10 μM). It is filed as cell-based. The following applies: agonist allylisothiocyanate 10 μM.
Excerpt: (§2) The effects of compound 34 have been evaluated on different ion channels and receptors implicated in pain-related processes to assess the selectivity for TRPM8 channels. First, some TRP channels that play a role in temperature integration and nociception were selected, including hTRPV1, hTRPV3, hTRPA1 and TRPM3. Additionally, the evaluation encompassed the hASIC3 channel with widespread distribution within the peripheral nervous system and contributions to the excitability of primary sensory neurons. In each instance, the compound was subjected to evaluation at a consistent concentration of 10 µM.
as §1

For a further test, the target named is T4, hASIC3 channel (Homo sapiens, UniProt Q9UHC3).
T4 construct: Eurofins-CEREP or Eurofins-PANLABS (contract assay)
T4 sequence (Q9UHC3 1-531): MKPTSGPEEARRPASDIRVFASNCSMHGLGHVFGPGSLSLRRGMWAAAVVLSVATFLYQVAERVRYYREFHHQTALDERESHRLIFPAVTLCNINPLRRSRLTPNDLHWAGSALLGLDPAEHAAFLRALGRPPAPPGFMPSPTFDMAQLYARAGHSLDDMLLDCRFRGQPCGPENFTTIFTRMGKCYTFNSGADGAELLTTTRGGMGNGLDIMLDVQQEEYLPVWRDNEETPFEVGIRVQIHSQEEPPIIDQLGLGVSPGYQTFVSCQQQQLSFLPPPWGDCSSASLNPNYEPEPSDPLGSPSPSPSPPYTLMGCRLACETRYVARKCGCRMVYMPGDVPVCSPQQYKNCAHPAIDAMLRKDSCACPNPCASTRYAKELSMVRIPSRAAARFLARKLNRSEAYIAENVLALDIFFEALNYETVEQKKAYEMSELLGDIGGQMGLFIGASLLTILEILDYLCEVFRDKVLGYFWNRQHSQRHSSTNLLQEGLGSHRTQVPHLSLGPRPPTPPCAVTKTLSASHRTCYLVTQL
Kind of test: ASIC3 channel functional assay (buffer pH 5.5). It is filed as cell-based.
Excerpt: as §2, §1

For the next test, the target named is hCGRPR (Homo sapiens, UniProt O60894+Q16602). Kind of test: Radioligand binding at CGRP receptor. The following applies: radioligand [125]hGCRPα. The text has this:
(§3) Furthermore, the investigation extended to measuring the binding affinity of compound 34 to calcitonin gene-related peptide hCGRPR, cannabinoid hCB2 and muscarinic hM3 receptors, which are all relevant to different pain conditions.

The next test concerns the target hCB2 (Homo sapiens, UniProt P34972). Kind of test: Radioligand binding at cannabinoid CB2 receptor. The following applies: radioligand [3H]WIN 55212-2.
Excerpt: as §3

For another test, the target named is hM3 (Homo sapiens, UniProt P20309). The test is described as follows: Radioligand binding at muscarinic M3 receptor. The following applies: radioligand [3H]4-DMAP.
Excerpt: as §3

Sequence of hCB2 (P34972 whole entry): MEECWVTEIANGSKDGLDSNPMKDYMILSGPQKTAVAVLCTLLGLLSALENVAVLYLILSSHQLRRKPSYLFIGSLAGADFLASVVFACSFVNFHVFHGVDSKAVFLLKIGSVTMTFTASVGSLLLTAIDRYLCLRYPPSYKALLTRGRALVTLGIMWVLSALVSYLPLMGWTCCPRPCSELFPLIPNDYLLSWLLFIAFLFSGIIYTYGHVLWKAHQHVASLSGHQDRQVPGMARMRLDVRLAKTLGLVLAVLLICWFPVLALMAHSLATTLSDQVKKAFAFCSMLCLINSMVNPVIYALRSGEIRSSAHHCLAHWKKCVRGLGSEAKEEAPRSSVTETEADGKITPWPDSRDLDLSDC
T1 sequence (Q8R455 whole entry): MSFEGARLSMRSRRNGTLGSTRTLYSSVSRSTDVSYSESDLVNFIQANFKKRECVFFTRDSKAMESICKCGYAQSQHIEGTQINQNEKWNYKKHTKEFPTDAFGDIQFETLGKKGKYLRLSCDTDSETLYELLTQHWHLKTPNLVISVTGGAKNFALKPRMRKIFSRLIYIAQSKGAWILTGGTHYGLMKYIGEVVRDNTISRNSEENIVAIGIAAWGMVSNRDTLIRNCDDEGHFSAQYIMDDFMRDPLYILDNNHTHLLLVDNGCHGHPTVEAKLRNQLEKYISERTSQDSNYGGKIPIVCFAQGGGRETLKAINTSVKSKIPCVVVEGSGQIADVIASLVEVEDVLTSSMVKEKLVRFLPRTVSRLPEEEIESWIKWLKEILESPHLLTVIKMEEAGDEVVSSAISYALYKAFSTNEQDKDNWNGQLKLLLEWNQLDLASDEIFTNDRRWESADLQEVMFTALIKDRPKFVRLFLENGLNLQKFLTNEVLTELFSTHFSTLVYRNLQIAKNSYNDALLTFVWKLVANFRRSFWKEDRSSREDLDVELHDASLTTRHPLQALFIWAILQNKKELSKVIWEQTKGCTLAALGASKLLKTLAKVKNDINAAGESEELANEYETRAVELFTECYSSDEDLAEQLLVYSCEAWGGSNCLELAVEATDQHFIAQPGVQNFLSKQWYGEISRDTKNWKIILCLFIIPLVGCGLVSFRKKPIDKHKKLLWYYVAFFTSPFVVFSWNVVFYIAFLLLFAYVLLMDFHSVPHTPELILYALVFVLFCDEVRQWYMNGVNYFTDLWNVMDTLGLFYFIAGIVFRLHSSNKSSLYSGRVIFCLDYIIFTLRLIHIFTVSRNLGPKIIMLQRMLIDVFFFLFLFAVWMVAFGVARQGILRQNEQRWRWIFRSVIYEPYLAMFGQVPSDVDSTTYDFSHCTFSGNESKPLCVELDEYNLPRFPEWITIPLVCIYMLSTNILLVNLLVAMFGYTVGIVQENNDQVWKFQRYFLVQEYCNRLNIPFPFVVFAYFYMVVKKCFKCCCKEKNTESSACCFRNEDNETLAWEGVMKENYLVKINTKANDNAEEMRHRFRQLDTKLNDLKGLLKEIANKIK
T2 sequence (Q8R455 whole entry): as above
Sequence of hCGRPR (Q16602 23-461): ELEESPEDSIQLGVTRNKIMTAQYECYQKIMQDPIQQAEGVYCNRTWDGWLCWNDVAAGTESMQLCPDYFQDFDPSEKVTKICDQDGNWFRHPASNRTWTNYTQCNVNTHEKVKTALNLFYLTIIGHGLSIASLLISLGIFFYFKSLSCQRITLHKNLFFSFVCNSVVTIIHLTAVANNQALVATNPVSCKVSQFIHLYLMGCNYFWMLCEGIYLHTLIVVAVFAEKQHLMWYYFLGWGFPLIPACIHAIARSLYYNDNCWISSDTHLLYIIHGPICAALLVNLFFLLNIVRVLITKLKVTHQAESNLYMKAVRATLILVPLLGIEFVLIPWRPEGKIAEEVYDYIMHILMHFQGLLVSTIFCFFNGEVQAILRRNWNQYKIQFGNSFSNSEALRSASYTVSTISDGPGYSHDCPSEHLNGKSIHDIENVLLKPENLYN
Sequence of hCGRPR (O60894 27-148): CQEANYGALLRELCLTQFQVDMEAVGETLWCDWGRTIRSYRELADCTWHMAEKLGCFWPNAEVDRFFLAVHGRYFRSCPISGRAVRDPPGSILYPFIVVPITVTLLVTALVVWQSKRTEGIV
Sequence of hM3 (P20309 whole entry): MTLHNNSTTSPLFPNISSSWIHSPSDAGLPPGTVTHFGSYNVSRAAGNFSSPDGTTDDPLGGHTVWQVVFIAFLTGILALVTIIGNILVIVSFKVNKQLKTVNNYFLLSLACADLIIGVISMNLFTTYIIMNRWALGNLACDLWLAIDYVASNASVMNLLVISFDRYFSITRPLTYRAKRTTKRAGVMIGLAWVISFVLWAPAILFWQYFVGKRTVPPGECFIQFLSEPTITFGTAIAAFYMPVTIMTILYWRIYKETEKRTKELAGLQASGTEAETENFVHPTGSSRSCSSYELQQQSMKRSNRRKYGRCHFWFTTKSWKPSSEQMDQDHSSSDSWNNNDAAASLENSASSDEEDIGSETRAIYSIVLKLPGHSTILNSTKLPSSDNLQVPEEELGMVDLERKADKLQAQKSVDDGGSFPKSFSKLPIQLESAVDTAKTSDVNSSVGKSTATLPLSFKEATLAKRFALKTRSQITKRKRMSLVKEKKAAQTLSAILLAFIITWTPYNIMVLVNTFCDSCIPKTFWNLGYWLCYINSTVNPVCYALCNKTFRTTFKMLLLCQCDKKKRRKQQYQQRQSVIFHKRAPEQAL
T3 sequence (O75762 whole entry): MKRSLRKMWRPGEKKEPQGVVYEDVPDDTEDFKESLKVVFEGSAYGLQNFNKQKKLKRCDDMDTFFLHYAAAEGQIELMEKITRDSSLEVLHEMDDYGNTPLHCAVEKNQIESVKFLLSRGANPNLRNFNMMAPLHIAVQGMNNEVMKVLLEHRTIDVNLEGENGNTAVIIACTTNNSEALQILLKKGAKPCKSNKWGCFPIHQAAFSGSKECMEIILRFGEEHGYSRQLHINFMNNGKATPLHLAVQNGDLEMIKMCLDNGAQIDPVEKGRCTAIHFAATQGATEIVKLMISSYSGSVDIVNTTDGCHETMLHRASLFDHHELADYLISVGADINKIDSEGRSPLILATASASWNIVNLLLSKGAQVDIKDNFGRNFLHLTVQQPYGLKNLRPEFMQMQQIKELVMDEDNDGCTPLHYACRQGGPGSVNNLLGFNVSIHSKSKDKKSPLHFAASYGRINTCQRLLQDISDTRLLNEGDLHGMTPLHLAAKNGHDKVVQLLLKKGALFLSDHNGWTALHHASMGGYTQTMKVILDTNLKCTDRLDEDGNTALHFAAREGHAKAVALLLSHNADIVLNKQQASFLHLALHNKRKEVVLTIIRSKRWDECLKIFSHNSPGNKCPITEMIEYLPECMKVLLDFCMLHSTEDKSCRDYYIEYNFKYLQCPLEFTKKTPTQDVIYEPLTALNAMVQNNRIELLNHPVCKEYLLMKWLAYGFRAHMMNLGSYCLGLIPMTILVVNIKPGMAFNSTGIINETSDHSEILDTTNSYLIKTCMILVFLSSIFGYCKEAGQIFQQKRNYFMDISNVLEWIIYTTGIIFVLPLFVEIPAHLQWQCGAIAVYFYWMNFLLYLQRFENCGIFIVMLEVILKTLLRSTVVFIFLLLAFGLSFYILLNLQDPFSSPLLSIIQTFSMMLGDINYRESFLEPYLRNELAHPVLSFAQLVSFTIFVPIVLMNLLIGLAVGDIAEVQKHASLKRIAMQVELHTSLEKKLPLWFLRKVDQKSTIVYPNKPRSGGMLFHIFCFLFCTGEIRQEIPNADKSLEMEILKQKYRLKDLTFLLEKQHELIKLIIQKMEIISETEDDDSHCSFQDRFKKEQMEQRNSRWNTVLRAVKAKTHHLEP

In general, IC50 refers to the concentration at which inhibition is half-maximal. One may read the inhibition as the change of the read-out against control, counted positive when it falls. For the compound `CC(C)CNC(=O)[C@]1(Cc2ccccc2)[C@H](C)C(=O)N1C[C@H](Cc1ccccc1)N(Cc1ccccc1)Cc1ccccc1` [Compound 34, 4S-Benzyl-4-[N-(iso-butyl)-carbamoyl]-3S-methyl-1-[(2′S-dibenzylamino-3′-phenyl)prop-1′-yl]-2-oxoazetidine], the IC50 is 300 nM in test [1] and 160 nM at rTRPM8. Further, the “effect on resting membrane potential (RMP)” value in test [2] is listed as “did not alter the RMP”. Further, the inhibition at 10 µM on hTRPA1 is 2 ± 3.4%; against hASIC3 channel, 2.2 ± 9.6%; on hCGRPR, -11.9 ± 5.2%; on hCB2, 7 ± 2.1%; at hM3, 5.2 ± 3.2%.
